Results taken from US5126368A, “Octenoic acid derivatives useful as thromboxane A2 inhibitors” (Imperial Chemical Industries plc, priority 1985, dated 1992).

How the values were obtained:
[1] = tested on: rabbit aortal strip; test: Test (a): rabbit aortal strip model (Piper and Vane); format: cell-based; details: agonist TXA2 or U46619
Description: (§1) As stated earlier, the compound of formula I is an antagonist of one or more of the actions of TXA2, for example certain of its actions on blood platelets, the vasculature and/or the lung.
(a) The rabbit aortal strip model devised by Piper and Vane (Nature, 1969, 223, 29-35) using as agonist a freshly prepared sample of TXA2, generated by addition of arachidonic acid (25 μg) to citrated, platelet rich rabbit plasma (250 μl) and allowing the mixture to aggregate fully over 90 seconds before use; alternatively the TXA2 mimetic agent known as U46619 (described by R.L. Jones et alia in "Chemistry, Biochemistry and Pharmacological Activity of Prostanoids" edited by S.M. Roberts and F. Scheinmann, at page 211; Pergamon Press, 1979) may be used as the agonist;

[2] = tested on: U46619 induced bronchoconstriction; test: Test (c): U46619-induced bronchoconstriction, Konzett-Rossler anaesthetised guinea-pig model; format: in vivo; details: 2 hours after oral dosing at 0.05 mg/kg, U46619 i.v.
Excerpt: (c) a bronchoconstriction test involving measuring the inhibition by a test compound of the bronchoconstriction induced in the Konzett-Rossler, anaesthetised guinea-pig model (as modified by Collier and James, Brit. J. Pharmacol., 1967, 30, 283-307) by intravenous administration of the TXA2 mimetic agent, U46619 and involving:
(i) obtaining a cumulative dose-response curve to U46619 induced bronchoconstriction by intravenous administration of constant volumes of increasing concentrations of U46619 (0.2-4 μg/kg) in physiological saline solution and expressing bronchoconstriction as the maximum of that theoretically obtainable with no air flow to the test animal;
(ii) generating a cumulative dose-response curve to U46619 induced bronchoconstriction at 30 minute intervals for 3 hours after oral dosing of test compound; and
(iii) calculating a dose-ratio for the test compound (that is the ratio of concentration of U46619 required to cause 50% bronchoconstriction in the presence and absence of test compound) indicating the potency of TXA2 antagonism.

[3] = tested on: U46619 induced hypertension; test: Test (d): U46619-induced hypertension in anaesthetised rats; format: in vivo, rat (Alderley Park strain); details: 1 hour after an oral dose of 5 mg/kg
Description: (d) Male rats (Alderley Park strain) are anaesthetised with sodium pentobarbital and blood pressure is monitored at the carotid artery. The TXA2 mimetic agent U46619 is administered intravenously at 5 μg/kg via the jugular vein to produce a 20-30 mm Hg ([…]) increase in systolic pressure. The procedure is repeated twice to establish reproducibility of the effect. A test compound is then administered either intravenously (via the jugular vein) or orally (via a cannula) directly into the stomach and the animal is challenged with U46619, five minutes after dosing with test compound and then successively every ten minutes until the hypertensive effect of U46619 is no longer blocked.

[4] = biological target: T1, human, citrated, platelet-rich plasma (Homo sapiens, UniProt P21731); test: Test (b): U46619-induced aggregation of human citrated platelet-rich plasma (Born); format: cell-based; details: agonist U46619, averaged over several concentrations
T1 construct: aggregating human, citrated, platelet-rich plasma; endogenous in cells; host or cells: human platelets in citrated platelet-rich plasma
T1 sequence (P21731 1-343): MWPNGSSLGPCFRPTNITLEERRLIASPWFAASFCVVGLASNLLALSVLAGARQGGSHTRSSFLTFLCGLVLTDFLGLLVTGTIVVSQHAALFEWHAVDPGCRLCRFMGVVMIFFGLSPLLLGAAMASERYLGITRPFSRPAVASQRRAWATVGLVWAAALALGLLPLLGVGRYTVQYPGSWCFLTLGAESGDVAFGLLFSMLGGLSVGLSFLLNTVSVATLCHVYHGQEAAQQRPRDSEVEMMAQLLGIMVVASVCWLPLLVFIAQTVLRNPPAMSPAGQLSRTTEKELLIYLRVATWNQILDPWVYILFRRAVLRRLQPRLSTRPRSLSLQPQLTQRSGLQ
Excerpt: as §1
(b) a blood platelet aggregation test based on that described by Born (Nature, 1962, 194, 927-929) and involving:
(i) aggregating human, citrated, platelet-rich plasma by addition of the TXA2 mimetic agent U46619 so that a dose-response curve is generated;
(ii) generating a dose-response curve for U46619 stimulated platelet aggregation in the presence of increasing amounts of test compound (generally in the range 10^-5 M to 10^-10 M); and
(iii) calculating a KB value indicating potency of TXA2 antagonism for the test compound, averaged over several concentrations, from the calculated 50% response value for U46619 aggregation in the presence and absence of test compound; and […]

Structure (SMILES)	pA2 [1]	dose ratio [2]	inhibition of U46619 induced hypertension [3]	Kb [4]
O=C(O)CCC/C=C\C[C@@H]1CO[C@H](C(F)(F)F)O[C@@H]1c1ccccc1 (relative stereo) [5(Z)-7-([2,4,5-cis]-4-phenyl-2-trifluoromethyl-1,3-dioxan-5-yl)heptenoic acid, reference compound]	6.52±0.02	–	–	–
O=C(O)CCCC/C=C\C[C@@H]1CO[C@H](C(F)(F)F)O[C@@H]1c1ccccc1O (relative stereo) [compound of formula I, 6(Z)-8-([2,4,5-cis]-4-o-hydroxyphenyl-2-trifluoromethyl-1,3-dioxan-5-yl)octenoic acid]	7.75±0.05	> 60	> 70%	3.35 µM
